Columns and labels:
db/db mouse = assay: In vivo evaluation on db/db mouse: body weight, glycemia, insulinemia, plasma lipids; settings: 50 mpk per os, 28 days
Experimental: The effect of the compounds according to the invention is evaluated in vivo on the db/db mouse by measuring the body weight evolution, the glucose levels, the insulin levels, the plasma total cholesterol and triglyceride levels, and by analyzing the distribution of cholesterol in different plasma lipoprotein fractions, after 28 days of a per os treatment with compounds according to the invention.
Female db/db mice were kept on a 12 hour/12 hour light/dark cycle at a constant temperature of 20±3° C. After a one week acclimatization period, the mice were weighed and divided into groups of 8 animals selected so as to render uniform the distribution of their body weights and their plasma lipid rates, determined before the experiment. The tested compounds were suspended in carboxymethylcellulose (Sigma C4888) and administered intra-gastric tube feeding once a day for 28 days at the chosen dose. The animals had free access to food and water (standard diet). Taking of food and weight gain are recorded throughout the experiment. At the end of the experiment, the animals were anesthetized after a 4 hour fast, a blood sample was taken using (EDTA) anticoagulant, then the mice were weighed and euthanized. The plasma was separated by centrifugation at 3000 rotations/minute for 20 minutes. The samples were kept at +4° C. The hepatic tissue and skeletal muscle tissue samples were taken and frozen immediately in liquid nitrogen then conserved at −80° C. for later analysis.
Murine plasma glucose is measured out according to an enzyme-colorimetric method using a Glucose RTU kit (Biomérieux). Glucose is transformed into gluconic acid under the action of glucose oxidase; the reaction releases hydrogen peroxide. Hydrogen peroxide is measured according to the Trinder reaction which, under the action of a peroxidase and in the presence of phenol and amino-4-antipyrine, produces water and a colored product, quinoneimine. The color intensity, due to the quinoneimine, is proportional to the amount of glucose present in the sample.
Murine insulin is measured using ELISA method (using the INSKR020 kit from provider Crystal chem.). A microplate is coated with a mouse anti-insulin antibody. Then, the serum to be assayed for insulin is placed onto the plate. A guinea pig anti-insulin antibody is used to recognize the complex formed by the mouse insulin and the anti-insulin monoclonal antibody. Finally an anti-guinea pig antibody labeled with peroxidase is added and bind to the guinea pig anti-insulin antibody. The colorimetric reaction is performed by adding an OPD (ortho phenyl diamine) enzyme substrate. The intensity of the color is proportional to the amount of insulin present in the sample.
Plasma lipid concentrations (total cholesterol and triglycerides) are measured by enzymatic assays (bioMérieux-Lyon-France) according to the provider's recommendations.
The different lipid fractions (VLDL, LDL, HDL) in the plasma were separated using gel-filtration chromatography. Cholesterol concentrations were then measured for each fraction by enzymatic assays (bioMérieux-Lyon-France) according to the provider's recommendations.

[1] = test system: PPARs target genes (PDK4, UCP2); assay: Hepatic and skeletal muscle gene expression by quantitative RT-PCR in db/db mouse; format: in vivo; settings: 50 mpk, 28 days
Experimental: The effectiveness of the compounds according to the invention is also evaluated by measuring, in the hepatic and muscular (skeletal) tissues, the expression of genes involved in lipid and/or glucid metabolism and in energy dissipation. Each level of gene expression is normalized regarding the expression level of the reference gene 36B4 in the hepatic tissue, or regarding the expression level of the reference gene 18S in the gastrocnemius skeletal muscle. The induction factor, i.e. the ratio between the relative signal (induced by the compound according to the invention) and the average of the relative values obtained with the control group, is then calculated. The higher the induction factor is, the more the greater the compound promotes gene expression. The final result is represented as the average of the induction values obtained with each experimental group. • FIG. 4-8: Expression of PDK4 in the hepatic tissue of the db/db mouse, after 28 days of treatment with compound 1 and compound 3, administered at 50 mpk • FIG. 4-9: Expression of UCP2 (uncoupling protein 2) in the skeletal muscle tissue of the db/db mouse, after 28 days of treatment with compound 1 and compound 3, administered at 50 mpk
Total RNA was extracted from liver fragments by using a NucleoSpin® 96 RNA kit (Macherey Nagel, Hoerdt, France) according to the manufacturer's instructions.
Total RNA was extracted from gastrocnemius skeletal muscle fragments by using a RNeasy® Fibrous Tissue kit (Qiagen) according to the manufacturer's instructions.
1 μg of total RNA (quantified by spectrophotometry) was then reverse-transcripted into complementary DNA by means of a 1 hour reaction at 37° C. in a total volume of 20 μl containing a 1× buffer (Sigma), 1.5 mM of DTT, 0.18 mM of dNTPs (Promega), 200 ng of pdN6 (Amersham), 30 U of RNase inhibitor (Sigma), and 1 μl of MMLV-RT (Sigma).
The PCR quantitative experiments were carried out using the MyiQ Single-Color Real-Time PCR Detection System (Biorad, Marnes-la-Coquette, France) and were performed using the iQ SYBR Green Supermix kit according to the provider's recommendations, in 96-well plates in 5 μl of a diluted reverse-transcription solution at a hybridization temperature of 55° C. The specific primer pairs of the genes being studied were used:
The amount of fluorescence emitted is directly proportional to the amount of complementary DNA present at the beginning of the reaction and amplified during the PCR. For each target studied, a range of solutions is performed with successive dilutions of mixtures of a few microliters of different reverse-transcription solutions. The relative levels of expression of each target are thus determined by using efficiency curves obtained with the points relative to the range of PCR solutions. […]

THP-1 human monocytes = assay: Secretion of MCP1 by THP-1 monocytes stimulated with PMA; format: cell-based; settings: THP-1 cells, 1 μM compound, 5 ng/ml PMA, 24 hours, vs DMSO
Experimental: (§1) The anti-inflammatory effects of the compound according to the invention is evaluated by measuring the secretion of MCP1 (Monocyte chemotactic protein-1) by THP1 monocytes treated for 24 hours with the compounds according to the invention and stimulated simultaneously with PMA (Phorbol 12-myristate 13-acetate, which promotes an inflammatory response in cells and their differentiation into macrophages).
as §1, with “the compounds” for “the compound”, “invention were” for “invention is”, “by” for “by THP1”, “with” for “with the”, “macrophages). […]” for “macrophages).”
The treatment medium is recovered and the MCP1 concentration is measured using the ELISA kit <<Human MCP-1 ELISA Set>> (BD OptEIA; 555179) in accordance with the manufacturer's recommendation.
MCP1 is laid on a plate and is recognized by an anti-MCP1 specific antibody. […] The coloration resulting from enzymatic activity is proportional to the quantity of fixed MCP1 and can be measured by a spectrophotometry method. A range is performed from a point representative of a known concentration and from which the MCP1 concentration of each sample is calculated. […]

## Cc1cc(CCC(=O)c2ccc(Br)cc2)cc(C)c1OC(C)(C)C(=O)O [Compound 3, 2-[2,6-dimethyl-4-[3-[4-bromophenyl]-3-oxo-propyl]phenoxy]-2-methylpropanoic acid]
db/db mouse
  HDL-cholesterol fraction (distribution of cholesterol in plasma lipoprotein fractions): significant increase
db/db mouse; vs control
  plasma free fatty acids: very significantly decreased
  plasma triglycerides: very significantly decreased
  total plasma cholesterol: significantly increased
[1]; gastrocnemius skeletal muscle
  expression of the gene coding for UCP2 in the skeletal muscle: reduction
[1]; hepatic tissue
  hepatic expression of the gene coding for PDK4: significant increase
THP-1 human monocytes
  MCP1 secreted by monocytes: significant reduction

— patent publication US8188148B2, “Substituted 1,3-diphenylpropane derivatives, preparations and uses thereof” (Genfit, priority 2006, dated 2012)
